The values below are quoted from earlier work in patent US8153594B2, “Tacrolimus standard and methods of using same” (Siemens Healthcare Diagnostics Inc., priority 2006, dated 2012).

Turning to `C=CC[C@@H]1/C=C(\C)C[C@H](C)C[C@H](OC)[C@H]2O[C@@](O)(C(=O)C(=O)N3CCCC[C@H]3C(=O)O[C@H](/C(C)=C/[C@@H]3CC[C@@H](O)[C@H](OC)C3)[C@H](C)[C@@H](O)CC1=O)[C@H](C)C[C@@H]2OC` [tacrolimus, Tacrolimus], the Solubility in water result is reported as “insoluble in water”.
